Results published in patent US9783488B2 (CHDI Foundation, Inc., priority 2013, dated 2017).

Legend:
[1] = tested on: cellular histone deacetylase enzymatic activity in Jurkat E6-1 cells; experiment: Inhibition of cellular HDAC activity in Jurkat E6-1 cells, fluorogenic substrate Boc-Lys(Tfa)-AMC; format: cell-based; settings: Homo sapiens, read-out: Cell IC50
Procedure, shortened: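 Jurkat E6.1 cells (75,000/well) were pre-treated with compound for 2 h at 37 °C, then given Boc-Lys(Tfa)-AMC (5× stock 500 μM) for 3 h. Cells were lysed with trypsin-containing buffer overnight, and released AMC fluorescence was read at Ex 355/Em 460 nm over a 16-point dilution series.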

[2] = target: human catalytic domain HDAC4 protein (amino acids 648-1032) (Homo sapiens (Human), UniProt P56524); experiment: Inhibition of HDAC4 catalytic domain enzymatic activity, fluorogenic substrate Boc-Lys(Tfa)-AMC; settings: HDAC4 catalytic domain enzyme, read-out: Biochemical HDAC4 IC50
Chain of human catalytic domain HDAC4 protein (amino acids 648-1032) (P56524 648-1032): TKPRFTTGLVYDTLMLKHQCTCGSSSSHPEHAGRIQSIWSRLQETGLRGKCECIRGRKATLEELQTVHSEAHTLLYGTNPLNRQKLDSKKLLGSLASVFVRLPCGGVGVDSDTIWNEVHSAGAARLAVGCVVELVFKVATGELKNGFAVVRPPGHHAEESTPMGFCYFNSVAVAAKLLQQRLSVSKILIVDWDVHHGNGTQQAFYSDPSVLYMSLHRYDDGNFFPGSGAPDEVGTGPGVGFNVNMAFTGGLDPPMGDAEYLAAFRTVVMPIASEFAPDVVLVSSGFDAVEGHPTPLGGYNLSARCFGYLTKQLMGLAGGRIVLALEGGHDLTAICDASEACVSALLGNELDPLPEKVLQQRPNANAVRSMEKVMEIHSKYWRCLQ

IC50 [1] [µM]	IC50 [2] [µM]	Structure (SMILES)
7.5	0.83	Cc1ccc(F)cc1C1(C(=O)NO)CCCC1 [Example 36, 1-(5-Fluoro-2-methylphenyl)-N-hydroxycyclopentanecarboxamide]
1.6	0.29	Cc1c(F)cccc1[C@]1(C(=O)NO)CC[C@@H](Oc2ccc3cnn(C)c3c2)C1 [Example 91, (1S,3R)-1-(3-Fluoro-2-methylphenyl)-N-hydroxy-3-((1-methyl-1H-indazol-6-yl)oxy)cyclopentanecarboxamide]
43.7	8.2	Cc1cccc(C2(C(=O)NO)CCCC2)c1 [Example 25, N-Hydroxy-1-m-tolylcyclopentanecarboxamide]
48.8	6.4	O=C(NO)[C@]1(c2ccccc2)CC[C@@H](c2cncc(F)c2)CC1 [Example 13, (1 r,4r)-4-(5-fluoropyridin-3-yl)-N-hydroxy-1-phenylcyclohexanecarboxamide]
0.23	0.14	Cc1c(F)cccc1[C@]1(C(=O)NO)CC[C@@H](c2ccc3cnn(C)c3c2)C1 (relative stereo) [Example 56, (1S,3R*)-1-(3-fluoro-2-methylphenyl)-N-hydroxy-3-(1-methyl-1H-indazol-6-yl)cyclopentanecarboxamide]
0.81	0.36	Cc1c(F)cccc1[C@]1(C(=O)NO)CC[C@@H](c2cccc3cnn(C)c23)C1 (relative stereo) [Example 60, (1S,3R*)-1-(3-fluoro-2-methylphenyl)-N-hydroxy-3-(1-methyl-1H-indazol-7-yl)cyclopentanecarboxamide]
0.42	0.34	Cc1c(F)cccc1[C@]1(C(=O)NO)CC[C@@H](c2ccc3nc(C4CC4)sc3c2)C1 (relative stereo) [Example 78, (1 S,3R*)-3-(2-cyclopropylbenzo[d]thiazol-6-yl)-1-(3-fluoro-2-methylphenyl)-N-hydroxycyclopentanecarboxamide]
0.11	0.074	Cc1c(F)cccc1[C@]1(C(=O)NO)CC[C@@H](c2ccc3nc(C(F)(F)F)[nH]c3c2)C1 (relative stereo) [Example 74, (1S,3R*)-1-(3-Fluoro-2-methylphenyl)-N-hydroxy-3-(2-(trifluoromethyl)-1H-benzo[d]imidazol-6-yl)cyclopentanecarboxamide]
> 50	> 50	O=C(NO)C1(c2cccc3c2OCC3)CCCC1 [Example 16, 1-(2,3-dihydrobenzofuran-7-yl)-N-hydroxycyclopentanecarboxamide]
18.5	2.5	O=C(NO)C1(c2cccc(F)c2F)CCCC1 [Example 15, 1-(2,3-difluorophenyl)-N-hydroxycyclopentanecarboxamide]
7.2	1.4	O=C(NO)[C@@]1(c2ccccc2)CC[C@H](c2cncc(F)c2)C1 [Example 42, (1S,3S)-3-(5-fluoropyridin-3-yl)-N-hydroxy-1-phenylcyclopentanecarboxamide]
> 50	> 50	COc1ccccc1C1(C(=O)NO)CCCC1 [Example 23, N-Hydroxy-1-(2-methoxyphenyl)cyclopentanecarboxamide]
0.75	0.32	Cc1c(F)cccc1[C@]1(C(=O)NO)CC[C@@H](c2cnc(OCCN3CCCC3)c(F)c2)C1 (relative stereo) [Example 48, (1 S,3R*)-1-(3-Fluoro-2-methylphenyl)-3-(5-fluoro-6-(2-(pyrrolidin-1-yl)ethoxy)pyridin-3-yl)-N-hydroxycyclopentanecarboxamide]
1.8	0.25	Cc1c(F)cccc1[C@]1(C(=O)NO)CC[C@H](c2ccnn2C)C1 (relative stereo) [Example 50, (1S,3S*)-1-(3-Fluoro-2-methylphenyl)-N-hydroxy-3-(1-methyl-1H-pyrazol-5-yl)cyclopentanecarboxamide]
0.16	0.046	Cc1c(F)cccc1[C@]1(C(=O)NO)CC[C@H](c2ccc3cnn(C(F)F)c3c2)C1 (relative stereo) [Example 55, (1S,3S*)-3-(1-(difluoromethyl)-1H-indazol-6-yl)-1-(3-fluoro-2-methylphenyl)-N-hydroxycyclopentanecarboxamide]
5.6	0.57	Cc1cc(F)ccc1C1(C(=O)NO)CCCC1 [Example 35, 1-(4-Fluoro-2-methylphenyl)-N-hydroxycyclopentanecarboxamide]
0.22	0.1	Cc1c(F)cccc1[C@]1(C(=O)NO)CC[C@H](c2ccc3c(cnn3C)c2)C1 (relative stereo) [Example 64, (1S,3S*)-1-(3-fluoro-2-methylphenyl)-N-hydroxy-3-(1-methyl-1H-indazol-5-yl)cyclopentanecarboxamide]

IC50 [1] [µM]	IC50 [2] [µM]	Structure (SMILES)
> 50	> 50	N#Cc1cccc(C2(C(=O)NO)CCCC2)c1 [Example 28, 1-(3-Cyanophenyl)-N-hydroxycyclopentanecarboxamide]
0.42	0.19	COc1ncc([C@@H]2CC[C@@](C(=O)NO)(c3cccc(F)c3C)C2)cc1F (relative stereo) [Example 45, (1S,3R*)-1-(3-fluoro-2-methylphenyl)-3-(5-fluoro-6-methoxypyridin-3-yl)-N-hydroxycyclopentanecarboxamide]
0.099	0.11	Cc1c(F)cccc1[C@]1(C(=O)NO)CC[C@@H](c2ccc3cn(C(F)F)nc3c2)C1 (relative stereo) [Example 65, (1S,3R*)-3-(2-(difluoromethyl)-2H-indazol-6-yl)-1-(3-fluoro-2-methylphenyl)-N-hydroxycyclopentanecarboxamide]
0.47	0.14	Cc1c(F)cccc1[C@]1(C(=O)NO)CC[C@H](Oc2ccc3cnn(C)c3c2)C1 [Example 92, (1S,3S)-1-(3-Fluoro-2-methylphenyl)-N-hydroxy-3-((1-methyl-1H-indazol-6-yl)oxy)cyclopentanecarboxamide]
0.25	0.11	Cc1c(F)cccc1[C@]1(C(=O)NO)CC[C@H](c2ccc3cnn(C)c3c2F)C1 (relative stereo) [Example 82, (1S,3S*)-3-(7-Fluoro-1-methyl-1H-indazol-6-yl)-1-(3-fluoro-2-methylphenyl)-N-hydroxycyclopentanecarboxamide]
0.19	0.22	Cc1c(F)cccc1[C@]1(C(=O)NO)CC[C@H](c2ccc3cn(C(F)F)nc3c2)C1 (relative stereo) [Example 66, (1S,3S*)-3-(2-(difluoromethyl)-2H-indazol-6-yl)-1-(3-fluoro-2-methylphenyl)-N-hydroxycyclopentanecarboxamide]
1.9	0.2	Cc1c(F)cccc1[C@]1(C(=O)NO)CC[C@@H](Oc2cncc(F)c2)C1 [Example 93, (1S,3R)-1-(3-fluoro-2-methylphenyl)-3-((5-fluoropyridin-3-yl)oxy)-N-hydroxycyclopentanecarboxamide]
1.6	0.39	Cc1c(F)cccc1[C@]1(C(=O)NO)CC[C@H](c2cncnc2)C1 (relative stereo) [Example 3, (±)-(1S*,3S*)-1-(3-fluoro-2-methylphenyl)-N-hydroxy-3-(pyrimidin-5-yl)cyclopentanecarboxamide]
0.47	0.3	Cc1c(F)cccc1[C@]1(C(=O)NO)CC[C@@H](c2ccc3c(c2)NCC(C)(C)O3)C1 (relative stereo) [Example 72]
0.2	0.09	Cc1c(F)cccc1[C@]1(C(=O)NO)CC[C@@H](c2ccc3c(c2)ncn3C)C1 (relative stereo) [Example 69, (1S,3R*)-1-(3-fluoro-2-methylphenyl)-N-hydroxy-3-(1-methyl-1H-benzo[d]imidazol-5-yl)cyclopentanecarboxamide]
2.63	0.33	Cc1c(F)cc(F)cc1C1(C(=O)NO)CCCC1 [Example 30, 1-(3,5-Difluoro-2-methylphenyl)-N-hydroxycyclopentanecarboxamide]
8.1	0.91	Cc1cccc(Cl)c1C1(C(=O)NO)CCCC1 [Example 31, 1-(2-Chloro-6-methylphenyl)-N-hydroxycyclopentanecarboxamide]
0.41	0.28	Cc1c(F)cccc1[C@]1(C(=O)NO)CC[C@@H](c2ccc3oc(C4CC4)nc3c2)C1 (relative stereo) [Example 62, (1S,3R*)-3-(2-cyclopropylbenzo[d]oxazol-5-yl)-1-(3-fluoro-2-methylphenyl)-N-hydroxycyclopentanecarboxamide]
0.18	0.048	Cc1c(F)cccc1[C@]1(C(=O)NO)CC[C@H](c2ccc3ncccc3c2)C1 (relative stereo) [Example 84, (1S,3S*)-1-(3-Fluoro-2-methylphenyl)-N-hydroxy-3-(quinolin-6-yl)cyclopentanecarboxamide]
7.3	1.1	Cc1c(F)cccc1[C@]1(C(=O)NO)CC[C@@H](N2CCOCC2)C1 (relative stereo) [Example 89, (1S,3R*)-1-(3-fluoro-2-methylphenyl)-N-hydroxy-3-morpholinocyclopentanecarboxamide]
0.54	0.095	Cc1c(F)cccc1[C@]1(C(=O)NO)CC[C@@H](c2cnn(C(F)F)c2)C1 (relative stereo) [Example 46, (1S,3R*)-3-(1-(Difluoromethyl)-1H-pyrazol-4-yl)-1-(3-fluoro-2-methylphenyl)-N-hydroxy cyclopentane carboxamide]
15.1	1.9	O=C(NO)C1(c2ccccc2Cl)CCCC1 [Example 26, 1-(2-Chlorophenyl)-N-hydroxycyclopentanecarboxamide]
